Measured values: PMC12302339 (Journal of Advanced Research, 2024)
Converted amounts (≈) assume the structure as drawn.

Columns and labels:
[1] = tested on: A549, human non-small cell lung cancer cells; assay: cells; type: cell-based
p42 = type: binding, Xanthomonas oryzae pv. oryzae
rice = conditions: in vivo
in vivo = conditions: Brachydanio rerio (zebrafish)

O=c1[nH]cc(F)c(=O)[nH]1 [5-FU, 5-fluorouracil, reference compound]
IC50 [1]: 1.42 µM

C#CCN(C(=O)C=C)c1ncnc2ccc(Br)cc12 [probe P1, N-(6-bromoquinazolin-4-yl)-N-(prop-2-yn-1-yl)acrylamide]
proteome labeling in situ or in vitro (p42): prominent labeling | time after which p42 was visualized (p42): 5 min | time to complete labeling of p42 (p42): 2 h

C=CC(=O)Nc1ncnc2ccc(Br)cc12 [compound 7a, N-(6-bromoquinazolin-4-yl)acrylamide]
phytotoxicity on rice leaves (rice): no signs of damage | LC50 at 48 h (in vivo): 0.53 µg/mL (≈ 1.91 µM) | LC50 at 72 h (in vivo): 0.48 µg/mL (≈ 1.73 µM) | LC50 at 96 h (in vivo): 0.48 µg/mL (≈ 1.73 µM) | IC50 [1]: 23.1 µM | competition of probe P1 labeling of p42 (p42): dose-dependently competed

C#CCNc1ncnc2ccccc12 [NP, N-(prop-2-yn-1-yl)quinazolin-4-amine]
proteome labeling in situ or in vitro (p42): failed to label any proteins
